Data as given in BindingDB's records for doi:10.1016/j.bmcl.2011.12.066 (Daiichi Sankyo, 2012).
pEC50: −log10 of the molar value.

Molecular target: T1, Peroxisome proliferator-activated receptor gamma (Homo sapiens, UniProt P37231)
T1 sequence (P37231 whole entry): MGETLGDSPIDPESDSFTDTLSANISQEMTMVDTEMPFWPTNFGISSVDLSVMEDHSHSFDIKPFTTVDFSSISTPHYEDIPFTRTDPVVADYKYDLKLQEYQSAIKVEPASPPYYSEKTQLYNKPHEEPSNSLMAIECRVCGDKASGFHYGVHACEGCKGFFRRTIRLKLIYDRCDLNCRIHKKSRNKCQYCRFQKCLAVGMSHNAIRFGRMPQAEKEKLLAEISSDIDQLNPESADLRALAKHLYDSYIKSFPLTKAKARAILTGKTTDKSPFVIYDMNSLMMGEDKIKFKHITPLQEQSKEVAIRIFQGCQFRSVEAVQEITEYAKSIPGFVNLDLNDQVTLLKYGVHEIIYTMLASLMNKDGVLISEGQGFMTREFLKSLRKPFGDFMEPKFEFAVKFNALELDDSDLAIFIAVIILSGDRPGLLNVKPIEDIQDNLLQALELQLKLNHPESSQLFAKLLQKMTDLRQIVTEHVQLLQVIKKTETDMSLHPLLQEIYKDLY
Assay: Partial agonist activity at human PPARgamma expressed in MG-63 cells by reporter gene-based transactivation assay

SMILES | pEC50
COc1cc(O)c2c(c1C(=O)NCc1cc(O)cc3ccccc13)OC1=CC(=O)C(C(C)=O)C(=O)[C@]12C (some centres not stated) | 6.89
COC(=O)CCc1cc(CNC(=O)c2c(OC)cc(O)c3c2OC2=CC(=O)C(C(C)=O)C(=O)[C@]23C)c2ccccc2c1 (some centres not stated) | 6.89
